# “And” between values parts separate entries of the source, which are not always exact repeats. Equal values may be shown once. “Also recorded” adds a separate entry of the source. Non-standard residues stand in square brackets, D forms with d.
# Legend:
# [1] = test system: murine hepatic stellate cells (HSC); assay: Culture-induced activation of primary hepatic stellate cells (ASMA and oil red O staining); type: cell-based, mouse
# Description: Murine hepatic stellate cells (HSC) were isolated by collagenase/pronase digestion and Stractan density gradient centrifugation^16. α-Smooth muscle actin (ASMA) staining: HSC were cultured on glass coverslips and fixed with 10% formaldehyde (EM Science, Gibbstown, N.J.) for 20 minutes at room temperature. Cells were incubated with a mouse monoclonal anti-ASMA (1:250 or 1:50, as indicated), followed by a rabbit anti-mouse IgG TRITC conjugate (1:50, Santa Cruz Scientific, Santa Cruz, Calif.). Slides were examined using a Nikon PCM-2000 confocal microscope with a Nikon Eclipse TE300 microscope with a plan Apo 60×/1.4 aperture oil immersion objective, 543-nm laser, and Simple PCI software from the C-Imaging series from Nikon/Compix Inc (Cranberry Township Pa.). Values were obtained by counting the number of ASMA positive cells in 15 randomly selected fields in triplicate. […]
# To examine the mechanism of action of D-4F, murine hepatic stellate cells (HSC) were cultured on plastic for 7 days in the absence or presence of 10 μg/ml D-4F. Without D-4F, 87±2% of cells expressed α-smooth muscle actin (ASMA) after 7 days as assessed by confocal microscopy. In contrast, in the presence of D-4F 0% of HSC expressed ASMA after 7 days (see FIG. 7).
# [2] = test system: C57Bl/6J mice; assay: Western diet model: liver histology, assessment of steatosis and inflammation; type: in vivo, mouse; conditions: for Fatty Change Degree of fat / Fatty Change Type (predominant type) / Inflammatory Clusters: individual mice
# Description: Studies were performed in male C5713L/6J mice (Jackson Laboratories, Bar Harbor Me.). Six groups were studied (n=3-5, see FIG. 1) with 4 mice per group at the outset, except for group 2, which was started with n=5; 1 mouse died in group 1. Groups 1, 2, and 3 received the Western diet for 9.5 months; during the last 2.5 months of the 9.5 months, group 2 received SR141716 10 mg/kg/day i.g., and group 3 received D-4F, 125 μg/mouse/day, in the drinking water. Groups 4, 5, and 6 received the Western diet for 7 months followed by standard chow for 2.5 months; during the 2.5 months on standard chow, group 5 received SR141716 and group 6 received D-4F as described for groups 2 and 3, respectively. Additional control groups were studied: 6-month old C57Bl/6J mice as age-matched controls (n=5) and C57Bl/6J mice that received the Western diet for 6 months (n=6).
# The slides were coded, without the pathologist knowing the specific treatment group that the slides represented. The histology was graded according to a number of histologic features. The degree of fat was graded as to the approximate percentage of hepatocytes containing fat: 0, absent; +/−, less than 5%; 1+, 5-25%; 2+. 26-50%; 3+, 51-75%; 4+, >75%. The fat was also assessed as to whether it was totally macrovesicular, predominantly macrovesicular, totally microvesicular, predominantly microvesicular, or mixed macro- and microvesicular. In addition, the zone was assessed as to whether the fat was perivenular, periportal, diffuse, or focal. Inflammation was graded as absent, scanty (1 to 3 foci/slide), present (scattered, with 4 to 10 foci/slide), present + (scattered, >10 foci/slide but not numerous), and present ++ (numerous). The type of inflammation was graded as totally mononuclear, predominantly mononuclear, totally neutrophilic, predominantly neutrophilic, and mixed mononuclear-neutrophilic. The hydropic change of hepatocytes was graded as absent, mild, and moderate/severe, with the location noted as perivenular, focal or diffuse.
# [3] = group 3 vs group 1, Western diet 9.5 months, D-4F last 2.5 months
# [4] = 7 months Western diet followed by 2.5 months Western diet + drug
# [5] = 7 months Western diet followed by 2.5 months chow + drug
substance,measurement,setting,value
Ac-D-W-F-K-A-F-Y-D-K-V-A-E-K-F-K-E-A-F-NH2 (Ac-[dD][dW][dF][dK][dA][dF][dY][dD][dK][dV][dA][dE][dK][dF][dK][dE][dA][dF]-NH2; not fully specified; printed as Ac-D-W-F-K-A-F-Y-D-K-V-A-E-K-F-K-E-A-F-NH2) [D-4F],"cytoplasmic fat (lipid) droplets, oil red O staining",[1]; HSC cultured 7 days in the presence of D-4F vs without,maintain significantly more lipid droplets; also recorded: maintained cytoplasmic fat droplets
same,hepatic stellate cell activation in vitro,[1]; summary statement,prevented hepatic stellate cell activation
same,"inflammation, histologically",[2]; [3],some evidence of a reduction
same,"steatosis, histologically",[2]; [3],no effect
same,"inflammation, histologically",[2]; group 6 (switch to chow plus D-4F) vs group 4 (switch to chow),perhaps a small decrease
same,Fatty Change Degree of fat,[2]; [4],4
same,Fatty Change Type (predominant type),[2]; [4],Macrovesicular
same,Inflammatory Clusters,[2]; [4],3 (3×) and 2
same,Fatty Change Degree of fat,[2]; [5],2 (2×) and 0 and 3
same,Fatty Change Type (predominant type),[2]; [5],Mixed
same,Inflammatory Clusters,[2]; [5],1 and 2 (3×)
same,steatohepatitis (summary),[2]; summary statement,did not alter steatohepatitis

# — US20090197811A1, “ORALLY ADMINISTERED PEPTIDES TO IMPROVE OR PREVENT HEPATIC FIBROSIS” (University of Southern California, priority 2007, published 2009)
